{
  "source": "paper PMC8582824",
  "about": "“Targeting DDX3X Helicase Activity with BA103 Shows Promising Therapeutic Effects in Preclinical Glioblastoma Models” (Cancers, 2021)",
  "type_in_all_cases": "cell-based",
  "key": {"HN6": {"system": "HN6", "assay": "MTS cytotoxicity assay, HN6 cells", "conditions": "HN6, 72 h", "procedure": "(§1) For CellTiter 96® Aqueous One Solution Cell Proliferation Assay (MTS) (Promega, Madison, WI, USA), cells were seeded at 5 × 10^3 per well in 96-well plates in quadruplicate together a control with no cells to evaluate the background. After 24 h, the culture medium was removed, and fresh medium containing increasing concentrations of chemical compounds was added to cells. The fixed final concentrations were 0.1 μM, 1 μM, 10 μM, and 100 μM. DMSO was the vehicle used for dilution of the compounds, and its final concentration on cells was less than 0.2%. Medium-only containing wells were included as controls. […] After 3 h at 37 °C in a humidified, 5% CO2 atmosphere, the absorbance at 492 nm was recorded using an EZREAD400 (Biochrom, Cambridge, United Kingdom) plate reader. The average 490 nm absorbance from the “no cell” control wells was subtracted from all other values to yield background-corrected absorbance. Dose–response curves and CC50 values have been calculated by plotting the absorbance data as a function of inhibitor concentrations and fitting the data by least-squares nonlinear regression, according to the method of Marquardt–Levenberg, with the computer program GraphPad Prism 6.0.\n(§2) Cells were incubated with a scalar concentration of DDX3X inhibitors, and after 72 h of treatment, cell viability was assessed by cytotoxicity assay. […]"}, "[1]": {"system": "A549, MDA-MB-231, HCT-116, U2OS, RD18, DBTRG, U87, U251 and DAOY cancer cell lines", "assay": "Cytotoxicity on additional cancer cell lines", "conditions": "72 h", "procedure": "as §1, §2"}, "U87 and U251 cells [2]": {"system": "U87 and U251 cells", "assay": "Cell cycle analysis in GBM cells", "conditions": "after 72 h", "procedure": "[…] At the end point, at least 5 × 10^6 cells were harvested, washed with phosphate buffer saline (PBS), and fixed overnight with 70% ethanol. Then, ethanol was removed by centrifugation, and the cells were resuspended in PBS and stained with 50 μg/mL propidium iodide (PI) at 4 °C for 30 min in the dark. Stained cells were analyzed by a Tali image-based cytometer (Life Technologies, Carlsbad, CA, USA) counting 20 fields per sample, and exported fcs raw data were elaborated by Flowing software (v. 2.5.0, by Perttu Terho, University of Turku, Finland).\nTo better characterize the antiproliferative effect of BA103, we performed further biological evaluation using GBM cell lines. The expression of DDX3X was evaluated in U87 and U251 cell lines by Western blot analysis in comparison with HepG2 cells, resulting in basally detectable mainly in U87 cells (Figure 6A). […] Cell cycle experiments were performed in normal conditions (CTR) and in the presence of BA103 at 1 µM and 10 µM concentrations for 48 h and 72 h. […] Thus, also according to the importance of β-catenin signaling in GBM, we analyzed whether the expression of β-catenin in U87 and U251 cells could be associated with DDX3X activity. GBM cells were treated with BA103 for 48 h, and then, β-catenin expression was evaluated by Western blot analysis and immunofluorescence analysis (Figure 7A,B, respectively). […]"}, "U87 and U251 cells [3]": {"system": "U87 and U251 cells", "assay": "Transwell migration assay in GBM cells", "conditions": "48 h of incubation, vs untreated cells", "procedure": "Exponential growing cells were treated with the inhibitor or vehicle for 48 h and then trypsinized, washed twice with PBS, rinsed in complete medium, incubated at 37 °C for 30 min to reconstitute the membrane structures, washed again for FCS removal, and then added to the upper compartment of collagen-coated (PTFE) Transwell insert (Corning Inc., Corning, NY, USA). Cells were allowed to migrate through coated filters for 6 h. The cells attached on the lower membrane surfaces were stained with 0.1% crystal violet w/v in 0.1 mol/L borate, pH 9.0, and 2% ethanol v/v for 20 min at room temperature. Cells were counted at 400× magnification in standard optical microscopy, and the average number of cells per field in 5 random fields was recorded. Triplicate filters were used, and the experiments were repeated at least two times.\nTo better characterize the antiproliferative effect of BA103, we performed further biological evaluation using GBM cell lines. The expression of DDX3X was evaluated in U87 and U251 cell lines by Western blot analysis in comparison with HepG2 cells, resulting in basally detectable mainly in U87 cells (Figure 6A). […] Thus, also according to the importance of β-catenin signaling in GBM, we analyzed whether the expression of β-catenin in U87 and U251 cells could be associated with DDX3X activity. […]"}, "HepG2": {"system": "HepG2", "assay": "MTS cytotoxicity assay, HepG2 cells", "conditions": "HepG2, 72 h", "procedure": "as §1, §2"}},
  "data": [
    {"smiles": "CCCCc1cn(-c2ccc(NC(=O)Nc3ccccc3C(F)(F)F)cc2)nn1", "note": "[BA103, 1-(4-(4-Butyl-1H-1,2,3-triazol-1-yl)phenyl)-3-(2-(trifluoromethyl)phenyl)urea]", "values": [
      {"measurement": "CC50", "setting": "HN6", "value": "low micromolar range"},
      {"measurement": "CC50s against the additional cell lines", "setting": "[1]", "value": "micromolar CC50s"},
      {"measurement": "cell cycle distribution", "setting": "U87 and U251 cells [2]", "value": "significant accumulation of cells in the G0/G1 phase"},
      {"measurement": "migration through collagen-coated Transwell filters", "setting": "U87 and U251 cells [3]", "value": "reduced ability to migrate"},
      {"measurement": "CC50", "setting": "HepG2", "value": "low micromolar range"}
    ]}
  ]
}
